For assay [1], the system named is Mycobacterium tuberculosis CDC1551 (intracellular, in murine BMDM). Nature of the assay: area under intracellular growth-inhibition dose-response curve (AUC (% inhibition x dose, relative)); higher = more potent. The following applies: duration: 6 days; dose range: 0.13-80 uM, 8 points. The procedure, abridged: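 The value is the area under the growth-inhibition dose–response curve, calculated in GraphPad Prism. Primary murine bone marrow-derived macrophages were seeded in 384-well opaque plates and, 24 h later, infected for 1 h with luciferase-expressing M. tuberculosis CDC1551 at multiplicity of infection 1. Cells were then exposed for 6 days to an 8-dose, 2.5-fold series (final 80–0.13 μM). Growth was read with the Bright-Glo luciferin assay and normalised to a reference drug control and to the lowest-concentration wells.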

Assay [2] concerns murine bone marrow-derived macrophages. Nature of the assay: area under cytotoxicity dose-response curve (AUC (% cytotoxicity x dose, relative)); higher = more cytotoxic. The following applies: duration: 6 days; dose range: 0.13-80 uM, 8 points. The procedure, abridged: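 Values are the area under the cytotoxicity dose–response curve, calculated with GraphPad Prism version 10. Primary murine bone marrow-derived macrophages were exposed to final concentrations of 80–0.13 μM for 6 days, and viability was read by CellTiter-Glo luminescence with normalisation to vehicle and positive control wells.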

Here are results for 26 compounds from the supplement of paper PMC11997997.

`CC(NC(=O)c1ccccc1)c1ccc(F)cc1` (configuration not stated): the “area under intracellular growth-inhibition dose-response curve” value in assay [1] was 265. Moreover, the “area under cytotoxicity dose-response curve” value in assay [2] was below 0.
In the case of `C/C(=N/NC(=O)c1ccncc1)c1ccc2c(c1)OCO2`, in assay [1], the “area under intracellular growth-inhibition dose-response curve” value is 257. The “area under cytotoxicity dose-response curve” value in assay [2] is 13.8.
Take `O=C(NC1CCCCC1)c1ccc2snnc2c1`: the “area under intracellular growth-inhibition dose-response curve” value in assay [1] was 156. Moreover, the “area under cytotoxicity dose-response curve” value in assay [2] is below 0.
Take `CNC[C@@H](Cc1ccccc1)NC[C@@H](CC1CCCCC1)NCCCc1ccccc1`: the “area under intracellular growth-inhibition dose-response curve” value in assay [1] stood at 104. Moreover, the “area under cytotoxicity dose-response curve” value in assay [2] is 61.5.
The matching figures for `COc1ccc(CCNC2=C(Cl)C(=O)N(CCc3ccc(OC)c(OC)c3)C2=O)cc1OC`: 66.8 and 92.7.
As for `CC(C)(C)c1nnc(NC(=S)Nc2ccccc2)s1`, the “area under intracellular growth-inhibition dose-response curve” value in assay [1] came out at 258. Moreover, the “area under cytotoxicity dose-response curve” value in assay [2] was below 0.
The matching figures for `O=C(NCCc1ccc(Cl)cc1)c1ccc(CNc2c(N3CCOCC3)c(=O)c2=O)cc1`: 162 and below 0.
As for `CCC(=O)N1CCN(c2ccc(NC(=O)c3ccc([N+](=O)[O-])o3)cc2Cl)CC1`, in assay [1], the “area under intracellular growth-inhibition dose-response curve” value worked out at 58.5. In assay [2], the “area under cytotoxicity dose-response curve” value was 30.3.
In the case of `O=C(Nc1ccc([N+](=O)[O-])cc1Cl)c1cc(Cl)ccc1O`, the “area under intracellular growth-inhibition dose-response curve” value in assay [1] turned out to be 151. The “area under cytotoxicity dose-response curve” value in assay [2] came out at 108.
Turning to `CCN(CC)CCOC(=O)c1ccc(N/C=C(/C#N)c2nc(-c3ccc(OC)c(OC)c3)cs2)cc1`, in assay [1], the “area under intracellular growth-inhibition dose-response curve” value was 90.7. Besides, the “area under cytotoxicity dose-response curve” value in assay [2] worked out at 36.6.
As for `Nc1ccc(C(=O)[O-])c(O)c1.[Na+]`, the “area under intracellular growth-inhibition dose-response curve” value in assay [1] amounted to 182. The “area under cytotoxicity dose-response curve” value in assay [2] amounted to 27.5.
As to `CO[C@@H]1[C@@H](OC(N)=O)[C@@H](O)C(Oc2ccc3c(O)c(NC(=O)c4ccc([O-])c(CC=C(C)C)c4)c(=O)oc3c2C)OC1(C)C.[Na+]` (some centres not stated), the “area under intracellular growth-inhibition dose-response curve” value in assay [1] is 24.9. In assay [2], the “area under cytotoxicity dose-response curve” value stood at 80.2.
`CCOc1ccc2oc(C(=O)OCC(=O)NC3CCCCC3)c(C)c2c1`: the “area under intracellular growth-inhibition dose-response curve” value in assay [1] was 119. Further, the “area under cytotoxicity dose-response curve” value in assay [2] is below 0.
Consider `Cn1nnnc1SCC1=C(C(=O)O)N2C(=O)C(NC(=O)Cn3nc(C(F)F)cc3C3CC3)C2SC1` (configuration not stated), for which the “area under intracellular growth-inhibition dose-response curve” value in assay [1] turned out to be 177. The “area under cytotoxicity dose-response curve” value in assay [2] is 38.2.
For `NC(=S)NN=C1Cc2cccc3cccc1c23`, in assay [1], the “area under intracellular growth-inhibition dose-response curve” value was determined as 263. Also, the “area under cytotoxicity dose-response curve” value in assay [2] amounted to 58.9.
The matching figures for `CC1CCN(C(=O)C2CCC(CNc3c(N4CCCCC4)c(=O)c3=O)CC2)CC1` (configuration not stated): 87.1 and 8.86.
`CCC(=O)NC(=S)Nc1ccc(NC(=O)COc2ccccc2)cc1`: the “area under intracellular growth-inhibition dose-response curve” value in assay [1] stood at 201. Further, in assay [2], the “area under cytotoxicity dose-response curve” value turned out to be 69.1.
For `CN(Cc1ccccc1)c1ccc2nnc(-c3ccccc3)n2n1`, the “area under intracellular growth-inhibition dose-response curve” value in assay [1] was 169. For the same compound, the “area under cytotoxicity dose-response curve” value in assay [2] was below 0.
Take `O=C(NCC1CCCCC1)c1ccc(Br)o1`: the “area under intracellular growth-inhibition dose-response curve” value in assay [1] stood at 274. For the same compound, the “area under cytotoxicity dose-response curve” value in assay [2] was below 0.
The matching figures for `Cc1ccccc1NC(=O)COC(=O)c1cc(S(=O)(=O)N2CCOCC2)ccc1C`: 34.5 and 23.2.
The matching figures for `Cc1c(C(=O)N(C)C)sc(NC(=O)c2cccc([N+](=O)[O-])c2)c1C#N`: 13.8 and 51.5.
With `COc1cc(OC)c(/C=N/NC(=O)c2ccncc2)c(OC)c1`, in assay [1], the “area under intracellular growth-inhibition dose-response curve” value worked out at 272. The “area under cytotoxicity dose-response curve” value in assay [2] was 60.6.
For the compound `Cc1cc(OCCCC(=O)NNC(=O)c2ccncc2)ccc1Cl`, the “area under intracellular growth-inhibition dose-response curve” value in assay [1] amounted to 245. Also, the “area under cytotoxicity dose-response curve” value in assay [2] was determined as 25.3.
For the compound `Br.COc1ccc(C2=CSC(/N=C/c3ccc(F)cc3)=NN2)cc1`, in assay [1], the “area under intracellular growth-inhibition dose-response curve” value worked out at 182. Moreover, in assay [2], the “area under cytotoxicity dose-response curve” value was determined as 49.1.
`COc1ccc2c(c1)c(CC(=O)OCC(=O)O)c(C)n2C(=O)c1ccc(Cl)cc1`: the “area under intracellular growth-inhibition dose-response curve” value in assay [1] came out at 117. Also, the “area under cytotoxicity dose-response curve” value in assay [2] was found to be 47.6.
As to `CN(CC(=O)Nc1ccc(OC(F)(F)F)cc1)C(=O)c1ccc(N2CCCC2=O)cc1`, in assay [1], the “area under intracellular growth-inhibition dose-response curve” value came to 27.6. Also, the “area under cytotoxicity dose-response curve” value in assay [2] worked out at 36.3.
